Measured values taken from BindingDB's records for doi:10.3109/14756366.2011.572879 (Ataturk University, 2012).
Where a name gives a salt, the structure may show the parent alone.

Biological target: T1, Glutathione reductase, mitochondrial (Homo sapiens, UniProt P00390)
T1 sequence (P00390 whole entry): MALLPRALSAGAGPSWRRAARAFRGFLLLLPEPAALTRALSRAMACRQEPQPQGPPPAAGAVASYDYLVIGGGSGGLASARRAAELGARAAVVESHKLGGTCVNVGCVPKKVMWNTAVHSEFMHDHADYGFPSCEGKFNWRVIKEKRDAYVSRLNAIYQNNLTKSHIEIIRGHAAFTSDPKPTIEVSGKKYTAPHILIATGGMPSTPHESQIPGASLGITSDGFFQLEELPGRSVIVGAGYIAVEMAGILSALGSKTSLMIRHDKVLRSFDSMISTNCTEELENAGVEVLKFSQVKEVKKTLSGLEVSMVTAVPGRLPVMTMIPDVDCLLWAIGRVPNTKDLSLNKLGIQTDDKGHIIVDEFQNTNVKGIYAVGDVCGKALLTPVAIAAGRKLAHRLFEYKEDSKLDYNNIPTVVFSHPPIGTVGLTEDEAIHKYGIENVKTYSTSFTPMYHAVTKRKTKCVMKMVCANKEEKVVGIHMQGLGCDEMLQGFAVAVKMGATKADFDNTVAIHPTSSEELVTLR
Assay: Activity Assay
Settings: pH 8; 25 °C
Method: The assay system contained 40 mM Tris-HCl buffer, pH 8.0, including 0.8 mM EDTA, 1 mM GSSG and 0.1 mM NADPH in 1 mL total reaction volume. The activity was measured by monitoring the decrease in absorbance at 340 nm due to the oxidationof NADPH at 25°C. One enzyme unit is defined as the oxidation of […] NADPH per min under the assay conditions.

IC50 [µM]	Ki [µM]	SMILES
12	0.8	CN1CCC(=C2c3ccccc3CC(=O)c3sccc32)CC1 [(Z)-2-butenedioate;10-(1-methyl-4-piperidinylidene)-5H-benzo[1,2]cyclohepta[3,4-b]thiophen-4-one]
–	28800	O=C(O)CN(CCN(CC(=O)O)CC(=O)O)CCN(CC(=O)O)CC(=O)O [Gadopentetic acid]
990	434	OC(CNc1ccccn1)c1ccccc1 (stereo not given) [Phenyramidol-HCl]
